Experimental data: ChEMBL document CHEMBL1201862, “PubChem BioAssay data set” (2004)
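Step 1: Grow cells in 96-well plates. Step 2: Expose to compound for 48 hours at 5 concentrations. Step 3: Interpolate endpoints linearly; if unreached, use highest concentration. GI50 marks 50% less growth.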 Activity calls are given as the source filed them. No stated cut-off is given here; in the data, active = GI50 up to about 1.1 µM and inactive = higher.

Columns and labels:
Experiment in all cases: DTP human tumour cell line panel, 48 h
Hs-578T = tested on: Hs-578T
MDA-N = tested on: MDA-N
T47D = tested on: T47D

O=C(Nc1ccc2c(c1)oc(=O)c1ccccc12)C(Cl)Cl was tested, and the GI50 (Hs-578T) was > 100 µM (inactive), the GI50 (MDA-N) was > 100 µM (inactive) and the GI50 (T47D) was > 100 µM (inactive).

In the case of CO/C=C(/C(=O)OC)c1ccccc1[C@H]1C[C@@H]1c1ccc(OC)cc1, the GI50 (Hs-578T) is reported as 25.9 µM (inactive), the GI50 (MDA-N) is reported as 12.9 µM (inactive) and the GI50 (T47D) is reported as 21.1 µM (inactive).

For CN1N=C(c2ccncc2)OC1c1cccc(F)c1 (stereo unspecified), the GI50 (Hs-578T) was > 100 µM (inactive), the GI50 (MDA-N) was > 100 µM (inactive) and the GI50 (T47D) was > 100 µM (inactive).

For CCOC1=NC(C(F)(F)F)(C(F)(F)F)N=C(N2CCOCC2)O1, the GI50 (Hs-578T) was > 100 µM (inactive), the GI50 (MDA-N) was > 100 µM (inactive) and the GI50 (T47D) was 27 µM (inactive).

For CCOC(=O)c1sc2nc(SC)nc3c2c1NC(=O)CN3c1ccc(F)cc1, the GI50 (Hs-578T) was 27.1 µM (inactive) and the GI50 (MDA-N) was 37.9 µM (inactive).

With c1ccc(Nc2nnc(-c3ccccc3Nc3ccccc3-c3nnc(Nc4ccccc4)s3)s2)cc1 the GI50 (MDA-N) was > 100 µM (inactive).

In the case of S=C1N(c2ccc(Cl)cc2)C2=C(/N=N/c3ccccc3)C(=Nc3ccccc3S2)N1c1ccccn1, the GI50 (Hs-578T) is reported as 16.4 µM (inactive), the GI50 (MDA-N) is reported as 15.4 µM (inactive) and the GI50 (T47D) is reported as 0.075 µM (active).

With CN(CCCNC(=O)c1nn(-c2ccccc2)c2c1ccc1ccccc12)CCCNC(=O)c1nn(-c2ccccc2)c2c1ccc1ccccc12 the GI50 (Hs-578T) was 2.58 µM (inactive), the GI50 (MDA-N) was 1.68 µM (inactive) and the GI50 (T47D) was 1.82 µM (inactive).

With C=C1CC(C)(c2ccc(Nc3nc4ccccc4c4occc34)cc2)OC1=O (stereo unspecified) the GI50 (MDA-N) was 3.29 µM (inactive) and the GI50 (T47D) was 3.03 µM (inactive).

In the case of C=C1C(=O)O[C@H]2C(=O)[C@H](C)CCC[C@@](C)(O)/C=C\C[C@@]3(C)O[C@@H]3C[C@@H]12, the GI50 (Hs-578T) is reported as 27 µM (inactive), the GI50 (MDA-N) is reported as 17.9 µM (inactive) and the GI50 (T47D) is reported as 23.7 µM (inactive).

In the case of c1ccc2c(c1)ncn2CCn1ccnc1, the GI50 (Hs-578T) is reported as > 100 µM (inactive) and the GI50 (T47D) is reported as > 100 µM (inactive).

With COc1nn(Cc2ccccn2)c2ccc([N+](=O)[O-])cc12 the GI50 (Hs-578T) was 19.4 µM (inactive), the GI50 (MDA-N) was 27.8 µM (inactive) and the GI50 (T47D) was 77.8 µM (inactive).

For Cc1cc(Cc2c(C)c(C)c(Cc3cc(C)cc(C(C)(C)C)c3O)c(C)c2C)c(O)c(C(C)(C)C)c1, the GI50 (Hs-578T) was > 100 µM (inactive), the GI50 (MDA-N) was > 100 µM (inactive) and the GI50 (T47D) was > 100 µM (inactive).

For NCCN1C(=O)c2ccccc2C1c1ccc(Cl)cc1 (stereo unspecified), the GI50 (Hs-578T) was > 100 µM (inactive), the GI50 (MDA-N) was > 100 µM (inactive) and the GI50 (T47D) was > 100 µM (inactive).

For COP(=O)(O)C(N)Cc1c[nH]c2ccccc12 (stereo unspecified), the GI50 (Hs-578T) was > 100 µM (inactive), the GI50 (MDA-N) was > 100 µM (inactive) and the GI50 (T47D) was > 100 µM (inactive).

For C=C1[C@@](C)([C@@H]2CCCS2)[C@H]2C(C)=C[C@]1(C)n1c(=O)n(-c3ccccc3)c(=O)n12, the GI50 (Hs-578T) was > 100 µM (inactive), the GI50 (MDA-N) was > 100 µM (inactive) and the GI50 (T47D) was > 100 µM (inactive).

ClC1=C(Cc2ccccc2)Cc2ccc3c(c21)CCC3 was tested, and the GI50 (Hs-578T) was 23.2 µM (inactive), the GI50 (MDA-N) was 36.6 µM (inactive) and the GI50 (T47D) was 18.5 µM (inactive).

CC1(C)[C@@H](Cn2nnc3c(N)ncnc32)CC[C@@]1(C)CO was tested, and the GI50 (Hs-578T) was > 100 µM (inactive), the GI50 (MDA-N) was > 100 µM (inactive) and the GI50 (T47D) was > 100 µM (inactive).

With COc1cccc(-c2cc(O)c3cccnc3n2)c1 the GI50 (Hs-578T) was 0.092 µM (active), the GI50 (MDA-N) was 0.0159 µM (active) and the GI50 (T47D) was > 100 µM (inactive).

In the case of CCOC(=O)C(C)(C)C(O)C(C)C (stereo unspecified), the GI50 (Hs-578T) is reported as > 100 µM (inactive), the GI50 (MDA-N) is reported as > 100 µM (inactive) and the GI50 (T47D) is reported as > 100 µM (inactive).

For COC(=O)c1cc(OS(=O)(=O)C(F)(F)F)c(=O)n2c1CCCC2, the GI50 (Hs-578T) was > 100 µM (inactive), the GI50 (MDA-N) was > 100 µM (inactive) and the GI50 (T47D) was > 100 µM (inactive).

With CC(=O)C1(c2ccccc2)CCCN(C)CC1 (stereo unspecified) the GI50 (Hs-578T) was > 100 µM (inactive), the GI50 (MDA-N) was > 10 µM (inactive) and the GI50 (T47D) was > 100 µM (inactive).

In the case of COC(=O)CCc1cc(OC)c(O)c(C(Cc2ccc(OC)c(OC)c2)C(=O)OC)c1 (stereo unspecified), the GI50 (Hs-578T) is reported as > 100 µM (inactive), the GI50 (MDA-N) is reported as > 100 µM (inactive) and the GI50 (T47D) is reported as > 100 µM (inactive).

With CSc1n[n+](C)cc(N)c1N the GI50 (MDA-N) was > 100 µM (inactive) and the GI50 (T47D) was > 100 µM (inactive).

For CCC(C)NC1=NCC(C)S1 (stereo unspecified), the GI50 (Hs-578T) was > 100 µM (inactive), the GI50 (MDA-N) was > 100 µM (inactive) and the GI50 (T47D) was > 100 µM (inactive).

In the case of C=CCCCC1CCCNC1=S (stereo unspecified), the GI50 (Hs-578T) is reported as > 100 µM (inactive), the GI50 (MDA-N) is reported as > 100 µM (inactive) and the GI50 (T47D) is reported as > 100 µM (inactive).

For O=C(/C=C/c1ccc2c(c1)OCO2)Cc1nc2ccccc2[nH]c1=O, the GI50 (Hs-578T) was 14.1 µM (inactive), the GI50 (MDA-N) was 26.6 µM (inactive) and the GI50 (T47D) was 12 µM (inactive).

In the case of C=CCNC(=O)NNC(O)(C(=O)OCC)C(F)(F)F (stereo unspecified), the GI50 (Hs-578T) is reported as > 100 µM (inactive), the GI50 (MDA-N) is reported as > 100 µM (inactive) and the GI50 (T47D) is reported as > 100 µM (inactive).

For COc1cc([C@@]23OC[C@@H]4[C@@H](OC[C@@H]42)c2cc4c(cc23)OCO4)cc(OC)c1OC, the GI50 (Hs-578T) was < 0.01 µM (active), the GI50 (MDA-N) was < 0.01 µM (active) and the GI50 (T47D) was 50.8 µM (inactive).

For Clc1ccc(C2ON=C(c3ccccc3)N2C23CC4CC(CC(C4)C2)C3)cc1 (stereo unspecified), the GI50 (Hs-578T) was > 10 µM (inactive), the GI50 (MDA-N) was > 10 µM (inactive) and the GI50 (T47D) was > 10 µM (inactive).

COc1ccccc1N1CCN(CCCN2C(C(=O)c3ccccc3)=C(O)c3c(C)cc(C)nc3S2(=O)=O)CC1 was tested, and the GI50 (Hs-578T) was 59.3 µM (inactive), the GI50 (MDA-N) was > 100 µM (inactive) and the GI50 (T47D) was > 100 µM (inactive).

In the case of CC1=NC(C)(C)[N+]([O-])=C1, the GI50 (Hs-578T) is reported as > 10 µM (inactive), the GI50 (MDA-N) is reported as > 10 µM (inactive) and the GI50 (T47D) is reported as > 10 µM (inactive).

With OC1CN2CCS[C@H]2C(O)C1O (stereo partly specified) the GI50 (Hs-578T) was > 100 µM (inactive) and the GI50 (T47D) was > 100 µM (inactive).

With CCC1CCN/C(=N/S(=O)(=O)c2cc(C)c(Cl)cc2S)N1 (stereo unspecified) the GI50 (Hs-578T) was 28.4 µM (inactive), the GI50 (MDA-N) was 33 µM (inactive) and the GI50 (T47D) was 26.8 µM (inactive).

With C=C(C)C(=O)OC1C(C(C)CCCO)=C(CO)CC2OC(=O)C(=C)C21 (stereo unspecified) the GI50 (Hs-578T) was 16.8 µM (inactive), the GI50 (MDA-N) was 16.7 µM (inactive) and the GI50 (T47D) was 17.4 µM (inactive).

With Cc1ccc2c(c1)Nc1ccccc1P2(=O)O the GI50 (MDA-N) was > 100 µM (inactive) and the GI50 (T47D) was > 100 µM (inactive).

For Cc1cc(O)c(C(C)C)cc1C(=S)Nc1ccc(Cl)cc1, the GI50 (Hs-578T) was 9.1 µM (inactive), the GI50 (MDA-N) was 11.4 µM (inactive) and the GI50 (T47D) was 11.6 µM (inactive).

With CCOC(=O)c1cc(NC(=O)c2ccccc2)c(=O)n2c(cc3c(Cl)cccc32)c1O the GI50 (Hs-578T) was > 100 µM (inactive) and the GI50 (MDA-N) was > 100 µM (inactive).

For COP(=O)(OC)/C(=C\C1=CN(C(c2ccccc2)(c2ccccc2)c2ccccc2)CN1)NC=O, the GI50 (Hs-578T) was 23.3 µM (inactive), the GI50 (MDA-N) was 15.1 µM (inactive) and the GI50 (T47D) was 17.6 µM (inactive).

For CCNC(=O)Nc1cccc(NC(=O)NCC)n1, the GI50 (Hs-578T) was > 100 µM (inactive), the GI50 (MDA-N) was > 100 µM (inactive) and the GI50 (T47D) was > 100 µM (inactive).

With N=C1N(c2ccccc2)C(=S)/C(=N/c2ccccc2)N1c1ccccc1 the GI50 (Hs-578T) was 10 µM (inactive), the GI50 (MDA-N) was 2.45 µM (inactive) and the GI50 (T47D) was 2.57 µM (inactive).

For COc1ccc(C2=N/C(=C\c3ccccc3)C(=O)O2)cc1, the GI50 (Hs-578T) was 40.8 µM (inactive).

CN(Cc1cnc2nc(N)nc(N)c2n1)c1ccc(C(=O)NC(CCC(=O)NCCC(P(=O)(O)O)P(=O)(O)O)C(=O)O)cc1 (stereo unspecified) was tested, and the GI50 (Hs-578T) was > 100 µM (inactive), the GI50 (MDA-N) was 8.55 µM (inactive) and the GI50 (T47D) was > 67.9 µM (inactive).

For Cc1sc2nc(-c3cccc([N+](=O)[O-])c3)c(/C=N/N=C(N)N)n2c1C, the GI50 (Hs-578T) was 1.66 µM (inactive) and the GI50 (MDA-N) was 1.77 µM (inactive).

For COc1cc2c(cc1OC)CC1c3cc(OC)c(OC)cc3CCN1CC2 (stereo unspecified), the GI50 (Hs-578T) was 22.9 µM (inactive) and the GI50 (T47D) was > 100 µM (inactive).

Cc1ccc2nc(-c3ccc(C(C)(C)C)cc3)oc(=O)c2c1 was tested, and the GI50 (Hs-578T) was 27.7 µM (inactive), the GI50 (MDA-N) was 22.9 µM (inactive) and the GI50 (T47D) was 21.4 µM (inactive).

In the case of CSC(=S)OC1C(CO[Si](C)(C)C(C)(C)C)OC2OC(C)(C)OC21 (stereo unspecified), the GI50 (MDA-N) is reported as 29.2 µM (inactive).

For CCC(C#N)NCc1cccc(CNC(C#N)CC)c1 (stereo unspecified), the GI50 (Hs-578T) was 98.9 µM (inactive), the GI50 (MDA-N) was > 100 µM (inactive) and the GI50 (T47D) was > 100 µM (inactive).

With O=C1Oc2ccccc2N/C1=C/C(=O)c1ccc([N+](=O)[O-])cc1 the GI50 (Hs-578T) was 23.2 µM (inactive) and the GI50 (T47D) was > 100 µM (inactive).
